Patent US7534892B2, “Sulfonamide compound” (Shionogi & Co., Ltd., priority 2004, dated 2009)
Where two headings read alike, the source gives them in different places.

Test system: food intake of rats
Assay: Antifeeding activity: food intake after intracerebroventricular infusion of NPYY5 agonist
Format: in vivo
Conditions: Rattus norvegicus, compound 30 mg/kg oral, 0.1 nmol NPYY5 agonist infused one hour later
Description: A guide cannula was implanted in ventriculus lateralis of 7-week-old rats (200-300 g) reared in free-feeding. Then the rats reared in free-feeding about for 1 week.
A compound of the present invention was suspended in 0.5% HPMC solution (hydroxypropylmethylcellulose: 60SH-50, Shin-Etsu Chemical Co., Ltd.) to get a final concentration of 15 mg/ml.
Rats were given 2 mL/kg of a suspension of a compound of the present invention (the compound 30 mg/kg) by oral administration. On the other hand, rats in a control group were given the same amount of 0.5% HPMC by oral administration.
NPYY5 agonist ([cPP^1-7, NPY^19-23, Ala^31, Aib^32, Gln^34]-hPancreatic Polypeptide: Tocris Coockson) was dissolved in a physiological salt solution to be 0.1 nmol/10 μL. 0.1 nmol of the solution was infused via a guide cannula in a head of the rat one hour after giving a compound of the present invention. Immediately after the infusion, the amount of the remaining food was measured.
The amount of the remaining food was measured 1, 2 or 4 hour(s) after the infusion of an agonist and the food intake for this period was calculated. An antifeeding rate of a compound of the present invention against the food intake of rats in a control group was calculated.

[1] = food intake 1 h after infusion vs control group, read-out: Antifeeding activity (%) 1 h
[2] = food intake 2 h after infusion vs control group, read-out: Antifeeding activity (%) 2 h
[3] = food intake 4 h after infusion vs control group, read-out: Antifeeding activity (%) 4 h

| SMILES | inhibition in vivo at 30 mg/kg [1] [%] | inhibition in vivo at 30 mg/kg [2] [%] | inhibition in vivo at 30 mg/kg [3] [%] |
| --- | --- | --- | --- |
| CCn1c2ccccc2c2cc(NC(=O)CCNS(=O)(=O)CC(F)(F)F)ccc21 [Ig-1] | 67 | 44 | 48 |
| CCS(=O)(=O)NCCCCC(=O)Nc1ccc(OCC(F)(F)F)nc1 [Ia-3] | 85 | 78 | 74 |
| CCn1c2ccccc2c2cc(NC(=O)CCCCNS(=O)(=O)CC)ccc21 [Id-2] | 100 | 100 | 100 |
| CCn1c2ccccc2c2cc(NC(=O)[C@H]3CC[C@H](NS(=O)(=O)CC)CC3)ccc21 [Id-1] | 5 | 37 | 49 |
| CN(C)S(=O)(=O)N[C@H]1CC[C@H](C(=O)Nc2ccc(C(F)(F)F)cc2)CC1 [Ii-1] | 42 | 38 | 31 |
| CCS(=O)(=O)NCCCCC(=O)Nc1ccc2c(c1)c1c(n2C(C)C)CCCC1 [Id-4] | 100 | 94 | 95 |
| CCS(=O)(=O)N[C@H]1CC[C@H](C(=O)Nc2ccc(OCC(F)(F)F)nc2)CC1 [Ia-2] | 98 | 77 | 56 |
| CCS(=O)(=O)N[C@H]1CC[C@H](C(=O)Nc2ccc(N3C[C@@H](C)O[C@@H](C)C3)cc2)CC1 [Ib-1] | 90 | 95 | 92 |
